Measured values published in PubChem BioAssay AID588780 (Sanford-Burnham Center for Chemical Genomics, 2011).
Activity calls are given as the source filed them.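 The calls were made as follows: active = compounds whose fitted half-maximal concentration in the cell-protection dose series is at or below a set limit; inactive = the rest.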

system: H9c2 cardiomyocytes, 2-deoxyglucose stress, ATP luminescence, 2 h; assay: H9c2 cell survival under 2-deoxyglucose stress – uHTS hits, dose response (AID 588780)

| Structure (SMILES) | IC50 |
| --- | --- |
| CCOC(=O)c1[nH]c2cc(OC)c(OC)cc2c1NC(=O)C(C)N1CCN(Cc2ccccc2)CC1 (stereo not drawn) | > 79 µM (inactive) |
| C=CCC[C@H](Cc1ccc(F)cc1)C(=O)OC[C@@H](Cc1c[nH]c2ccccc12)NC(=O)[C@@H](CC=C)CC(=O)NCCO | > 79 µM (inactive) |
| CCOc1ccc2[nH]c(=O)c(CN(CCO)C3(c4nnnn4C4CCCCC4)CCCCC3)cc2c1 | 35.1 µM (inactive) |
| CS(=O)(=O)Nc1cccc(NC(=O)c2cccc3c(-c4cccc(C(N)=O)c4)coc23)c1 | > 79 µM (inactive) |
| CCOc1ccccc1NC(=O)c1oc2ccccc2c1NC(=O)C1CCCO1 (stereo not drawn) | 10.6 µM |
| Cc1cccc(NC(=O)c2cc(-c3ccco3)nc3ccccc23)n1 | > 79 µM (inactive) |
| COC(=O)Cn1c(=NC(=O)c2cc(-c3cccs3)nc3ccccc23)sc2cc(S(N)(=O)=O)ccc21 | 6.88 µM |
| O=C(CCc1nc2ccccc2c(=O)[nH]1)OCCOc1ccc(Cl)cc1 | 31.3 µM (inactive) |
| COc1ccc(C(C(=O)NCc2ccccc2)N(Cc2cccs2)C(=O)c2cnccn2)cc1 (stereo not drawn) | 16.1 µM |
| COc1ccccc1C(=O)Nc1nc(-c2ccc3c(c2)OCCO3)cs1 | > 79 µM (inactive) |
| O=c1[nH]c(CN2CCCC2)nc2sc3c(c12)CCC3 | > 79 µM (inactive) |
| CCOc1ccc(NC(=O)CN(C)C(=O)Cc2n[nH]c(=O)c3ccccc23)cc1OCC | > 79 µM (inactive) |
| O=C(Nc1ccc2c(c1)[nH]c(=O)c1ccccc12)C(F)(F)F | > 79 µM (inactive) |
| CC(=O)c1cccc(NC(=O)C(C)OC(=O)Cc2n[nH]c(=O)c3ccccc23)c1 (stereo not drawn) | > 79 µM (inactive) |
| COc1ccc(CSc2nc3ccccc3c(=O)[nH]2)cc1F | > 79 µM (inactive) |
| COc1cc2oc3cc(C#Cc4ccc(N)cc4)ccc3c(=O)c2cc1OC | > 79 µM (inactive) |
| CC(=O)NCc1ccc(-c2csc(NC(=O)CCc3nc4ccccc4c(=O)[nH]3)n2)s1 | > 79 µM (inactive) |
| O=C(CCn1c(=O)oc2ccccc21)N(Cc1ccccc1)c1ccccc1 | > 79 µM (inactive) |
| CCOC(=O)CNS(=O)(=O)c1cc(-c2n[nH]c(=O)c3ccccc23)ccc1C | > 79 µM (inactive) |
| O=c1[nH]c(N2CCN(c3ccccc3)CC2)nc2c1CCC2 | > 79 µM (inactive) |
| c1ccc(-c2nc(-n3ccnc3)nc(-n3ccnc3)n2)cc1 | > 79 µM (inactive) |
| O=C(CCc1nc2ccccc2c(=O)[nH]1)N1CCCc2ccccc21 | > 79 µM (inactive) |
| O=c1[nH]n(CC2COC3(CCCCC3)O2)c(=O)c2ccccc12 (stereo not drawn) | > 79 µM (inactive) |
| N#Cc1ccc(OCC(=O)Nc2nc(-c3ccccn3)cs2)cc1 | > 79 µM (inactive) |

| Structure (SMILES) | IC50 |
| --- | --- |
| Cc1cc(C(=O)N/N=C/c2cc(Br)ccc2OC(=O)c2ccccc2Cl)n[nH]1 | > 79 µM (inactive) |
| COc1ccc(-c2csc(NC(=O)c3cccc(N4C(=O)CCC4=O)c3)n2)cc1OC | 10.6 µM |
| COc1ccccc1NC(=O)c1ccc(NC(=O)Cc2n[nH]c(=O)c3ccccc23)cc1 | > 79 µM (inactive) |
| CC(=O)NCCNc1nc2c(-c3ccccc3)nnn2c2ccccc12 | > 79 µM (inactive) |
| COc1ccc(OC)c(C2CC(=O)c3c([nH]c(C(=O)OCC4CCCO4)c3C)C2)c1 (stereo not drawn) | > 79 µM (inactive) |
| O=C(N/N=C/c1ccccn1)c1cccs1 | > 79 µM (inactive) |
| c1ccc2c(c1)nc(Nc1ccc3c(c1)OCO3)c1nnnn12 | 16.9 µM |
| CC(C)(C)OC(=O)C[C@@H]1C/C=C\C[C@@H](CC(=O)N[C@@H](CO)Cc2ccccc2)C(=O)NC[C@@H](c2ccccc2)OC1=O | 11.9 µM |
| COc1ccc(-c2nnc(NC(=O)c3ccc(F)cc3)o2)cc1 | > 79 µM (inactive) |
| O=C(CSc1nc2ccccc2c(=O)[nH]1)N1CCCCC1 | > 79 µM (inactive) |
| CCn1cc(C(=O)Nc2cccc(NC(C)=O)c2)c2cc(OC)c(OC)cc2c1=O | > 79 µM (inactive) |
| CCN(Cc1ccccc1)C(=O)c1cc2c(=O)oc3ccc(C)cc3c2s1 | > 79 µM (inactive) |
| CC(Oc1ccccc1)C(=O)Nc1nc(-c2ccccn2)cs1 (stereo not drawn) | > 79 µM (inactive) |
| Fc1ccc(CSc2ccc3nnc(-c4cccnc4)n3n2)cc1 | 26 µM |
| O=C(N/N=C/c1ccccn1)c1cccc([N+](=O)[O-])c1 | > 79 µM (inactive) |
| Cc1cccc(OCCn2nc(C(=O)O)c3ccccc3c2=O)c1 | > 79 µM (inactive) |
| Cc1ccc(C)c(S(=O)(=O)N2CCN(C(=O)CCc3nc4ccccc4c(=O)[nH]3)CC2)c1 | > 79 µM (inactive) |
| O=c1[nH]nc(Cc2ccccn2)c2ccccc12 | > 79 µM (inactive) |
| Cc1ccc(S(=O)(=O)N2CCN(C(=O)c3cc(=O)[nH]c4ccccc34)CC2)c(C)c1 | 16.8 µM |
| COc1cc(-c2cc(NC(C)=O)c3ncc(-c4ccccc4)n3c2)cc(OC)c1OC | > 79 µM (inactive) |
| O=c1c2ccccc2nc(/C=C/c2ccc(O)cc2)n1-c1ccc(O)cc1 | > 79 µM (inactive) |
| CC1CCCN(Cc2nc3c(c(=O)n(C)c(=O)n3C)n2CCCc2ccccc2)C1 (stereo not drawn) | 35 µM (inactive) |
| Cc1cc(C)c(C)c(S(=O)(=O)N2CCN(C(=O)c3cc(=O)[nH]c4ccccc34)CC2)c1C | > 79 µM (inactive) |
| O=C(Nc1ccccc1C(=O)Nc1ccccc1C(=O)NCc1ccco1)c1ccco1 | 8.02 µM |

| Structure (SMILES) | IC50 |
| --- | --- |
| CCOCCCNC(=O)CCC(=O)NNc1nc2ccccc2c2nc(-c3ccccc3)nn12 | 54 µM (inactive) |
| Cc1c(O)ccc2c(-c3ccccc3)cc(=O)oc12 | 24.5 µM |
| O=C(NCC1CCCO1)C(c1ccc(F)cc1)N(C(=O)Cn1nnc(-c2ccc(F)cc2)n1)c1cccc(O)c1 (stereo not drawn) | 13.1 µM |
| O=C(CSc1nc2ccccc2c(=O)[nH]1)N1CCOCC1 | > 79 µM (inactive) |
| COc1cc(-c2cnc3c(NC=O)cc(-c4ccsc4)cn23)cc(OC)c1OC | > 79 µM (inactive) |
| O=C(CCc1nc2ccccc2c(=O)[nH]1)N1CCN(S(=O)(=O)c2ccccc2Br)CC1 | > 79 µM (inactive) |
| CS/C(=N\S(=O)(=O)c1ccccc1)c1ccccc1 | 41.3 µM (inactive) |
| O=C(Nc1ccc(C(=O)N2CCOCC2)cc1)c1cnn2c(C(F)F)cc(-c3ccccc3)nc12 | > 79 µM (inactive) |
| CCOC(=O)COc1cc(OCC(=O)OCC)c2c3c(c(=O)oc2c1)CCCC3 | 16.4 µM |
| CC(=O)Nc1cccc(NC(=O)c2cc(-c3cccnc3)nc3ccc(Br)cc23)c1 | > 79 µM (inactive) |
| COc1ccc(-c2cc(-c3nnc(COC(=O)C4CC4)o3)c3ccccc3n2)cc1OC | 6.83 µM |
| CCN(C[C@H]1N[C@@](Cc2ccccc2)(C(=O)OC)[C@H]2C(=O)N(C)C(=O)[C@@H]12)S(=O)(=O)c1ccc(OC)cc1 | 37.2 µM (inactive) |
| O=C1N[C@H]2CC=C[C@H]2Nc2ccccc21 | > 79 µM (inactive) |
| COc1cc(-c2cc(NC=O)c3ncc(-c4ccccc4)n3c2)cc(OC)c1OC | > 79 µM (inactive) |
| Cc1ccc(C=NNc2nc3c([nH]2)c(=O)n(C)c(=O)n3C)cc1 | 11.8 µM |
| COc1ccc(-c2cc(C(F)(F)F)n3nc(C(=O)N4CCN(C(=O)c5ccco5)CC4)cc3n2)cc1 | > 79 µM (inactive) |
| C=CC[C@@H](CC(=O)NCCO)C(=O)NC[C@H](OC(=O)[C@@H](CC=C)Cc1ccc(F)cc1)c1ccccc1 | > 79 µM (inactive) |
| COC(=O)c1c(C)[nH]c(C(=O)COc2ccc3ccc(=O)oc3c2)c1C | > 79 µM (inactive) |
| CC(=O)c1cccc(-c2cnc3c(NC=O)cc(-c4cccc(C(=O)N(C)C)c4)cn23)c1 | 19.5 µM |
| c1cncc(-c2nc(NCC3COc4ccccc4O3)c3ccccc3n2)c1 (stereo not drawn) | > 79 µM (inactive) |
| O=C(N/N=C/c1ccccn1)c1cc(-c2ccc(Cl)s2)[nH]n1 | > 79 µM (inactive) |
| COc1ccc(OC)c(/C=N/NC(=O)c2cc3c(OC)c(OC)ccc3[nH]2)c1 | > 79 µM (inactive) |
| Cn1c(-c2ccc(Cl)cc2)cnc1N | > 79 µM (inactive) |
| COC(=O)c1ccc(OCC(=O)Nc2ccccc2C(=O)NC2CC2)cc1 | 10.6 µM |

| Structure (SMILES) | IC50 |
| --- | --- |
| Cc1ccc(NC(=O)c2nc[nH]c2C(=O)NCCCCCCNC(=O)c2[nH]cnc2C(=O)Nc2ccc(C)cc2)cc1 | > 79 µM (inactive) |
| Cc1ccc(-c2n[nH]c(=O)c3ccccc23)cc1S(N)(=O)=O | > 79 µM (inactive) |
| CCOC(=O)C1CCN(c2cc3c(cc2NC(=O)c2ccccc2Cl)n(C)c(=O)n3C)CC1 | 11.7 µM |
| CC(=O)c1ccccc1OCC(O)CN1CCN(CCN2C(=O)c3cccc4cccc(c34)C2=O)CC1 (stereo not drawn) | > 79 µM (inactive) |
| COC(=O)C1=C(C)N(CCc2ccc(OC)cc2)C(=O)C1 | 39.4 µM (inactive) |
| O=C(CN1C(=O)C2CC=CCC2C1=O)Nc1nc(-c2ccc(F)c(F)c2)cs1 (stereo not drawn) | > 79 µM (inactive) |
| CC(=O)c1ccc(-c2cnc3c(NC=O)cc(-c4ccc(C(=O)NC5CC5)cc4)cn23)cc1 | > 79 µM (inactive) |
| CCCCNC(=O)c1cn(-c2ccc(OCC)cc2)c(=O)c2cc(OC)c(OC)cc12 | 41.7 µM (inactive) |
| Cn1nc(-c2ccccc2F)c2cc(C(=O)Nc3ccc4c(c3)OCCO4)sc21 | > 79 µM (inactive) |
| CC(OC(=O)Cc1n[nH]c(=O)c2ccccc12)C(=O)Nc1ccc(Cl)cn1 (stereo not drawn) | > 79 µM (inactive) |
| O=C(CSc1nnc(Cc2cccs2)n1CCc1ccccc1)N1CCCc2ccccc21 | > 79 µM (inactive) |
| CCOc1cc(NC(=O)C2CC2)c(OCC)cc1NC(=O)c1ccccn1 | > 79 µM (inactive) |
| Oc1ccc(Cl)cc1C=Nc1ccc2c3c(cccc13)CC2 | > 79 µM (inactive) |
| CN(C(=O)CCc1nc2ccccc2c(=O)[nH]1)C1CCS(=O)(=O)C1 (stereo not drawn) | > 79 µM (inactive) |
| CC(=O)c1ccc(-c2[nH]c3ccccc3c2CCN2C(=O)c3ccccc3C2=O)cc1 | > 79 µM (inactive) |
| C[C@@H]1ON(C)[C@H]2C[C@H]3c4[nH]c5ccc(-c6ccc7c(c6)OCO7)cc5c4CCN3C[C@@H]12 | 54.8 µM (inactive) |
| CCOC(=O)C1=c2/c(=C/c3ccncc3)c(N)c(C(=O)OC)n2C(=O)C(c2ccncc2)S1 (stereo not drawn) | > 79 µM (inactive) |
| CC(C)[C@H](NC(=O)c1ccccc1Cl)C(=O)Nc1nc(-c2ccccn2)cs1 | > 79 µM (inactive) |
| CCN(CC)CCNC(=O)CCc1n[nH]c(=O)c2ccccc12 | > 79 µM (inactive) |
| Nc1c(C(=O)N/N=C/c2cccnc2)oc2nc(-c3ccccc3)cc(-c3ccco3)c12 | > 79 µM (inactive) |
| N#Cc1c(-c2ccco2)cc(-c2cccnc2)nc1N | 12.1 µM |
